Source: patent US9625448B2, “Double caged GABA compounds, bis-CNB-GABA” (The Trustees of Princeton University, priority 2014, dated 2017)
Entries after “also recorded” stand apart in the source; their conditions may differ. Like-named read-outs stand apart in the source and are kept apart here.

Assays:
glutamate receptors = assay: Spontaneous EPSCs / miniature AMPA currents recorded from cerebellar interneurons; type: cell-based
Experimental: Bis-CNB-GABA was applied in vitro. Currents were recorded from cerebellar interneurons. […] FIG. 35 (right) illustrates response traces before and after application of bis-CNB-GABA. FIG. 35 (left) illustrates summary of data. FIG. 36 illustrates effects of 1 mM bis-CNB-GABA on spontaneously evoked miniature glutamate and miniature GABA currents in cerebellar interneuron.
FIG. 37 illustrates effects of uncaging. […] Referring to FIG. 37 (bottom), the graph illustrates uncaging at 365 nm with LED in the presence of 3 mM gabazine.
As a third and final test of the synaptic effects of bis-CNB-GABA, we measured its impact on spontaneous glutamatergic postsynaptic currents (EPSCs) recorded from MLIs. Referring to FIGS. 43B and 43E, with this configuration, no change in the amplitude of the EPSCs was observed (FIG. 43B, bottom) even with concentrations of bis-CNB-GABA up to 2 mM (FIG. 43E, p=0.4, Spearman rank order correlation test).

[1] = test system: cerebellar molecular layer interneurons; assay: Photolysis-evoked GABAergic currents in cerebellar molecular layer interneurons; type: cell-based
Experimental: The biological properties of our synthetic bis-CNB-GABA were evaluated using whole-cell patch recording from cerebellar molecular layer interneurons.
FIGS. 42A-42E illustrate physiological responses to photolysis of bis-CNB-GABA. FIG. 42A illustrates a cerebellar molecular layer interneuron visualized using Alexa 488 in the patch recording electrode solution. Referring to FIG. 42A, bis-CNB-GABA (0.6 mM) was photolyzed with a 405 nm laser spot in 3 different locations (indicated by 1, 2 and 3). Still referring to FIG. 42A, laser-evoked GABAergic currents are shown on the right panel. Still referring to FIG. 42A, gray traces show individual sweeps and black traces are averages. Still referring to FIG. 42A, the gray sweep at bottom indicates the laser flash (1 ms duration, intensity 5 mW) as recorded using a photodiode. FIG. 42B illustrates bis-CNB-GABA (1.4 mM) was photolyzed with a […] LED at progressively higher flash energies (0.25-1.1 mW, 5-50 ms, 1.25-55 μJ). FIG. 42C illustrates the same experiment as shown in FIG. 42B with Responses to mono-CNB-GABA (50 μM). FIG. 42D illustrates normalized current as a function of relative LED flash energies plotted on a log-log scale. FIG. 42E illustrates laser-evoked whole-cell current recorded in the absence and presence of 3 μM gabazine, a GABA receptor antagonist. Referring to FIG. 42E, a larger flash energy was used in the presence of gabazine.
Referring to FIG. 42A, molecular layer interneurons receive excitatory glutamatergic synapses, as well as inhibitory GABAergic synapses that show a pronounced level of spontaneous activity (gray traces). The effects of bis-CNB-GABA on these synaptic currents were tested.
By contrast, the relationship for mono-O-CNB-GABA was close to linear (log-log slope=1.3±0.1, n=3). For these measurements, evoked currents were normalized to the maximum current observed in the same neuron. […] These power laws are consistent with a process in which each molecule of bis-CNB-GABA must cumulatively undergo two uncaging reactions in order to release an active GABAA agonist.
To test whether bis-CNB-GABA-evoked responses resemble physiological events in their kinetics, we measured the kinetic properties of flash responses. […] This rise time is consistent with the dark reaction time (1.5 ms) for the slower cage, N-mono-CNB-GABA (Wieboldt, R.; Ramesh, D.; Carpenter, B. K; Hess, G. P. Biochemistry, 1994, 33, 1526-1533, which is incorporated herein by reference as if fully set forth). […] These rates approach those of spontaneous events and are among the fastest described for other GABA cages. […]

[2] = Absorbance spectrum / extinction coefficient; type: physicochemical; settings: for extinction coefficient: at 262 nm
Experimental: Following successful synthesis of bis-CNB-GABA, it was necessary to quantify extinction coefficient and quantum yield. […] Referring to FIG. 32, the first was accomplished simply by taking an absorbance spectrum of the compound. Extinction coefficient was then calculated from Beer's law.

physchem = type: physicochemical; settings: pH 7, aqueous buffer, thermodynamic from solid
Source text: Solubility data was important to obtain before attempting to use the compound in neural tissue. This was accomplished by dissolving a known amount of bis-CNB-GABA in pH 7.0 phosphate buffer solution.

GABAA receptors = settings: cited from earlier work
dentate granule cells = test system: dentate granule cells; set-up: dose or concentration left out as unconfirmed; settings: holding potential −80 mV; cited from earlier work
[3] = cited from earlier work
[4] = Gee et al., 1994; cited from earlier work
[5] = at 24 hr; prior report; cited from earlier work

Structure (SMILES)	effect on spontaneously-evoked AMPA currents (glutamate receptors; 1 mM (FIG. 36), FIG. 39)	effect on amplitude of miniature AMPA currents (glutamate receptors; 1.223 mM)	effect on miniature AMPA currents (glutamate receptors; 1.233 mM and 1.0 mM)	effect on spontaneous EPSC size / amplitude (glutamate receptors; all concentrations tested, up to 2 mM)	rise time of GABA-induced currents upon photolysis ([1]; FIGS. 38A-38D)	10-90% rise time of flash responses ([1]; responses comparable in size with spontaneous IPSCs, flash 1.0 ms, n=10) [ms]	wavelength of maximal absorbance [2] [nm]	extinction coefficient ([2]; listed as Bis-CNB GABA)	extinction coefficient ([2]; listed as Bis-CNB-GABA) [M⁻¹ cm⁻¹]	solubility (physchem) [mM]	effect on GABA-evoked currents (GABAA receptors; 200 μM)	IC50 (GABAA receptors; Molnár & Nadler, 2000, read-out: IC50, suppression of GABA-evoked IPSC currents) [µM]	IC50 (GABAA receptors; Table 2, O-CNB-GABA in hippocampal dentate neurons, read-out: IC50 in blocking synaptic GABAA currents) [µM]	activity at GABA receptors before photolysis (GABAA receptors)	effect on EPSC evoked by stimulation of the perforant path (dentate granule cells)	known quantum yield (QY) of standard ([3]; from Invitrogen)	quantum yield ([3]; literature values)	solubility [4]	conversion in the dark [5] [%]
O=C(CCCNC(C(=O)O)c1ccccc1[N+](=O)[O-])OC(C(=O)O)c1ccccc1[N+](=O)[O-] (stereo not shown) [bis-CNB-GABA, 2-((4-(Carboxy(2-nitrophenyl)methoxy)-4-oxobutyl)amino)-2-(2-nitrophenyl)acetic acid]	no significant effect	no significant effect	no significant effect	unaffected; also recorded: no change	approximately 2 ms	2.2±0.6	262	7,550 M^−1 cm^−1	7550	≤ 17	–	–	–	–	–	–	–	–	–
NCCCC(=O)OC(C(=O)O)c1ccccc1[N+](=O)[O-] (stereo not shown) [mono-CNB-GABA]	–	–	–	–	–	–	–	–	–	–	reversibly eliminated	28	28	antagonize GABA receptors; also recorded: antagonist of GABAA receptors	did not significantly affect	0.16	0.14	over 50 mM	< 1
